The subject of one series is PC3-M cells. The series is described as follows: Boyden chamber cell invasion assay, PC3-M cells. In kind it is cell-based, human. Here is the method: Boyden chamber cell invasion assays were performed as previously described by us[30], using either denatured collagen (BD Biosciences) or type IV human collagen (BD Biosciences), with all experiments repeated, each in N = 4 replicates. In some experiments, as indicated, cells were transfected with an expression plasmid, using Lipofectamine 2000™ (Invitrogen), or with siRNA, using DharmaFect Duo (Thermo Scientific) and co-transfected with β-Galactosidase (Plasmid pCMV•SPORT-βgal; Life Technology). […]
For cell invasion, PC3-M cells […]
were treated with 10 µM compound for a total of 3 days, and cell invasion assays were run at the end of the 3 day period, in the presence of compound. Values are the mean±SEM of three separate experiments, each run in replicates of N=3. […]
assays were performed with PC3-M cells. Values are the mean±SEM of a single experiment, in replicates of N=4, repeated at least once (also N=4). […]

The subject of series [1] is human prostate, breast, colon, and lung cancer cells. Put plainly: Single-cell migration assay. The settings on record: 10 µM, 3 days. In kind it is cell-based. The procedure:
Human prostate metastatic cells (PC3, PC3-M), and HPV-transformed normal (1532NPTX, 1542NPTX) and primary cancer (1532CPTX, 1542CPTX) cells, were treated with 10 µM genistein (G), KBU2046 (46), or vehicle (CO), and after 3 days, cell invasion was measured. Values are mean ± SEM of a single experiment in replicates of N = 4, with similar findings in multiple separate experiments (also N = 4). c Single-cell migration. Cell migration was measured after treatment for 3 days with 10 µM KBU2046 or vehicle (control). Values are mean ± SEM of a single experiment in replicates of N = 24, with similar findings in a separate experiment (also N = 24). *Denotes Student’s t-test P value <0.05, compared to controls. d Human cord blood hematopoietic stem cell colony formation assay. Values are the mean ± SD number of total, CFU-GM, CFU-GEMM, or BFU-E colonies at 14 days after treatment with KBU2046, from a single experiment in replicates of N = 2. e Induction of estrogen-responsive genes. Values are the mean ± SD of a single experiment, with similar results seen in a separate experiment, both in replicates of N = 2 […]

The target of series [2] is T1, General transcription factor II-I (Homo sapiens, UniProt P78347).
T1 construct: purchased Invitrogen
Put plainly: ProtoArray binding, General transcription factor II-I. The settings on record: 10 fold excess free KBU2046. The procedure:
The ProtoArray® assay, using the Human Protein Microarray platform, was performed by Invitrogen. […]
(d) Protein array hybridization. KBU2046-biotin was hybridized to ProtoArray® Human Protein Microarray’s at 0.5 and 10 µM with and without 10 fold excess free KBU2046. We first sought proteins that met the following criteria, and did so at both 0.5 and 10 µM concentrations of KBU2046-biotin (in the absence of free KBU2046): Z-Score greater than 2.5, Z-Factor greater than 0.5, CI P-value less than 0.05, negative control value <2,000 (relative fluorescence units; RFUs), and a signal/negative control signal of >10 and >5 for 10 µM and 0.5 µM conditions, respectively. This yielded 3 proteins, shown in table, for an initial hit rate of 0.03%. We then required free KBU2046 to inhibit binding by >75%. […]
There were two additional notable findings from protein array studies. First, the positive control used in protein arrays was staurosporine. Staurosporine is similar to genistein in that both are small compound natural products that are broad spectrum kinase inhibitors. In contrast to the lack of binding by KBU2046-biotin, staurosporine bound to 214 proteins at levels that were >/= 10 fold above that of background. The vast majority of these proteins were kinases. Second, both HSP90β and CDC37 were present on the protein arrays, and were not bound by KBU2046-

The nature of series [3]: Schiff-base formation with L-alanine, NMR. Format: physicochemical. The settings on record: 27°C (18 h) then 37°C, total 72 hours. The text has this: Response to Reviewers' comments:
We wish to thank reviewers for their time and thoughtful review. Please find below point-by-point responses to reviewer queries. Associated changes in the manuscript are underlined.
Reviewer (your email indicates #3, the review letter indicates #4):
1. While Schiff-base formation may be reversible, the reverse reaction may not occur during the life of the protein. Considering KBU2046’s binding affinity is proposed to be driven by a single H-bonding interaction with the carbonyl in question, studies should be conducted to ensure the formation of a Schiff base is not occurring.
Response. To specifically examine Schiff-base formation, we incubated KBU2046 with L-alanine at 27°C (18 h) and then 37°C for a total 72 hours, and observed no change in 1H or 13C NMR spectra of drug from the original observed spectra for KBU2046 alone. This exposure […]
product in the presence of a biologically relevant, representative primary amine. These studies were conducted by co-author Karl Scheidt, Professor of chemistry at Northwestern University.
Attached to this letter is a detailed description of the experiment.
These new experimental findings are concordant with our other findings presented in the manuscript. […]

Results on one molecule are retold here after article PMC6014988, “Precision therapeutic targeting of human cancer cell motility” (Nature Communications, 2018).

SMILES strings stand for the structures.

T1 sequence (P78347 whole entry): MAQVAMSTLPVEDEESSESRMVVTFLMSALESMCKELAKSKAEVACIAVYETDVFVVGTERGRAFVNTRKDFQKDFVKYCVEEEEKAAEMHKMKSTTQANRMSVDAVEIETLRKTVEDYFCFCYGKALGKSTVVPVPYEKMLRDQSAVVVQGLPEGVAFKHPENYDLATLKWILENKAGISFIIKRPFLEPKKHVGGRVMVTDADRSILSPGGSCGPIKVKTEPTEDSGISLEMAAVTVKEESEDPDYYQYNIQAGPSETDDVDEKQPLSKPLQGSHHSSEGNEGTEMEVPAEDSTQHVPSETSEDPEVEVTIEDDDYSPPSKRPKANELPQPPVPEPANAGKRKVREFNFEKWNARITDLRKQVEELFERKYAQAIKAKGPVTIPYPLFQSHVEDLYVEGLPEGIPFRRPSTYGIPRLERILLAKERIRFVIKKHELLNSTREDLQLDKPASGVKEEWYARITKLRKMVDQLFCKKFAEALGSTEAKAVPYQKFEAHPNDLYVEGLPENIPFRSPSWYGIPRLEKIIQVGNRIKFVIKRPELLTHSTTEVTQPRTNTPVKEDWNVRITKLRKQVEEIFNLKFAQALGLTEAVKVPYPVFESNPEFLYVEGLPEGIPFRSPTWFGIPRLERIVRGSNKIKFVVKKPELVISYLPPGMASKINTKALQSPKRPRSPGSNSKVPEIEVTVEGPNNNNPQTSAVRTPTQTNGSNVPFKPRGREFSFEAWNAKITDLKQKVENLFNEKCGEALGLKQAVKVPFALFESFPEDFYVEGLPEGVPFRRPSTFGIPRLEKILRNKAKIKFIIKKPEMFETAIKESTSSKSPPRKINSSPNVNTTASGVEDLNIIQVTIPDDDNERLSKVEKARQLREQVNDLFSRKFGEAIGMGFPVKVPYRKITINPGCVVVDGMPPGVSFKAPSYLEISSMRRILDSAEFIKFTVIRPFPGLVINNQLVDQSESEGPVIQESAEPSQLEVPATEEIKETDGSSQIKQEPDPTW

`O=C1c2ccccc2OCC1c1ccc(F)cc1` (racemic) [KBU2046, (±)-3(4-fluorophenyl)chroman-4-one]: the “anti-invasion efficacy under TGFβ stimulation” value in the series with PC3-M cells (PC3-M cells pretreated, then ± TGFβ) is “retains efficacy”. Moreover, in the series with PC3-M cells (PC3-M cells, 10 µM compound, 3 days), the anti-invasion activity result is “anti-invasive efficacy at least equal”. For the same molecule, the cell migration result in series [1] is “inhibited the migration”. The “% inhibition by competitor” value in series [2] (0.5 uM KBU2046-biotin) stood at 64%; in series [2] (10 uM KBU2046-biotin), 43%. Further, in series [3], the “change in 1H or 13C NMR spectra (Schiff-base formation)” value is “no change”.
